In patent US6528274B1, “Method for the production of sialylated oligosaccharides” (priority 1998, dated 2003):

Legend:
[1] = biological target: viral α2,3-sialyltransferase (Myxoma virus, UniProt Q9YJT3); format: biochemical; details: LacNAc-O-gr = 100; for Relative Rate (2.7 mM): acceptor 2.7 mM, relative rate of sialic acid transfer, 37° C., pH 6.1
Description: Acceptor (54 nmol), CMP-NANA (40 nmol), and CMP-^3H-NANA (150,000-180,000 dpm) were added to a mixture of cell lysate (16 μL), water (3 μL) and 1 μL of assay buffer (250 mM MES, 0.5% Triton CF54, pH 7.0) in a 0.5 mL microfuge tube. Reaction mixtures were incubated at 37° C., diluted with water to 200 μL and loaded onto a C18 Sep-Pak reverse-phase cartridge which had been pre-equilibrated with 20 mL of MeOH and 20 mL of water. The cartridge was washed with 50 mL of water and the product eluted with 4 mL of MeOH into a scintillation vial. The radioactivity of the MeOH eluates were quantitated by liquid scintillation in 10 mL of EcoLite (+) scintillation cocktail (ICN, Montreal, Quebec, Canada) in a Beckman liquid scintillation counter (LS1801).
Acceptor (54 nmol), CMP-NANA (40 nmol), and CMP-^3H-NANA (150,000-180,000 dpm) were added to a mixture of cell lysate (16 μL), water (3 μL) and assay buffer (250 mM MES, 0.5% Triton CF54, pH 6.1) in a 0.5 mL microfuge tube.

[2] = test system: myxoma viral α2,3-sialyl transferase; experiment: Transfer of sialic acid (CMP-3H-NANA) to Lewis a and Lewis x oligosaccharide acceptors by viral cell lysate, pH 7.0; format: biochemical, myxoma virus; details: acceptor 54 nmol, 37° C., duplicate experiments
Description: The myxoma viral α2,3-sialyl transferase cell lysate was prepared by a method similar to that set forth in International Patent Application Publication No. WO97/18302^65, which is incorporated herein by reference.
Ten T180 flasks of confluent layers of European rabbit kidney cell (RK13) cells were infected with Brazilian myxoma virus strain, Lausanne (Lu) (ATCC VR-115) isolated Campinas, Brazil, 1949 and Uriarra (Ur) isolated Australian Capital Territory, 1953 (a derivative of Moses strain (ATCC VR-116)). The cells were kept at 37° C. for 24 hours. Twenty-four hours post infection, the cells were detached by scraping and washed with PBS. Cell lysates were prepared by suspension in 20 mL of extraction buffer (50 mM MES, pH 6.1, 0.5% Triton-X100, 100 mM NaCl, 1.5 mM MgCl2, 0.1 mM PMSF, […] aprotinin) at 4° C., for 45 minutes. The lysate was clarified by centrifugation at 2,000 g at 4° C. for 15 minutes. […]
Acceptor (54 nmol), CMP-NANA (40 nmol), and CMP-^3H-NANA (150,000-180,000 dpm) were added to a mixture of cell lysate (16 μL), water (3 μL) and 1 μL of assay buffer (250 mM MES, 0.5% Triton CF54, pH 7.0) in a 0.5 mL microfuge tube. […] The radioactivity of the MeOH eluates were quantitated by liquid scintillation in 10 mL of EcoLite (+) scintillation cocktail (ICN, Montreal, Quebec, Canada) in a Beckman liquid scintillation counter (LS1801). […]

CCCCCCCCO[C@@H]1O[C@H](CO)[C@@H](O[C@@H]2O[C@H](CO)[C@H](O)[C@](C)(O)[C@H]2O)[C@H](O)[C@H]1O [3′-C-methyl-lactose-octyl]
Relative Rate (2.7 mM) [1]: 4.1

CCCCCCCCO[C@@H]1O[C@H](CO)[C@@H](O[C@@H]2O[C@H](CO)[C@](C)(O)[C@H](O)[C@H]2O)[C@H](O)[C@H]1O [4′-C-methyl-lactose-octyl]
Relative Rate (2.7 mM) [1]: 20

CCCCCCCCO[C@@H]1O[C@H](CO)[C@@H](O[C@@H]2O[C@H](C(C)(C)O)[C@H](O)[C@H](O)[C@H]2O)[C@H](O)[C@H]1NC(C)=O [6′,6′-C-dimethyl-LacNAc-O-octyl]
Relative Rate (2.7 mM) [1]: 17

OC[C@H]1O[C@H](Oc2ccccc2)[C@H](O)[C@@H](O)[C@H]1O [Gal-O-phenyl]
Relative Rate (2.7 mM) [1]: <1

COC(=O)CCCCCCCCOC1OC(CO)C(OC2OC(CO)C(O)C(OC3OC(CO)C(O)C(O)C3O)C2O)C(O)C1NC(C)=O (stereo not drawn) [Galα(1→3)-lacNAc-O-gr]
Relative Rate (2.7 mM) [1]: 18

COC(=O)CCCCCCCCO[C@@H]1O[C@H](CO)[C@@H](O[C@@H]2O[C@H](CO)[C@H](O[C@H]3O[C@H](CO)[C@H](O)[C@H](O)[C@H]3O)[C@H](O)[C@H]2O)[C@H](O)[C@H]1O [Galα(1→4)-lactose-O-gr]
Relative Vmax [1]: 17
Relative Rate (2.7 mM) [1]: 12

CCCCCCCCO[C@@H]1O[C@H](CO)[C@@H](O)[C@H](O)[C@H]1O [Glc-O-octyl]
Relative Rate (2.7 mM) [1]: <1

COC(=O)CCCCCCCCOC1OC(CO)C(O)C(O)C1NC(C)=O (stereo not drawn) [GlcNAc-O-gr]
Relative Rate (2.7 mM) [1]: <1

CC(=O)N[C@H]1C(O)O[C@H](CO)[C@@H](O[C@@H]2O[C@H](CO)[C@H](O)[C@H](O)[C@H]2O)[C@@H]1O (stereo partly drawn) [LacNAc-OH]
Relative Rate (2.7 mM) [1]: 171

COC(=O)CCCCCCCCO[C@@H]1O[C@H](CO)[C@@H](O[C@@H]2O[C@H](CO)[C@H](O)[C@H](O)[C@H]2O)[C@H](O)[C@H]1NC(C)=O [LacNAc—O-gr]
Relative Vmax [1]: 100
Relative Rate (2.7 mM) [1]: 100

COC(=O)CCCCCCCCO[C@@H]1O[C@H](CO)[C@@H](O[C@@H]2O[C@H](CO)[C@H](O)[C@H](O)[C@H]2O)[C@H](O)[C@H]1O [Lactose-O-gr]
Relative Vmax [1]: 112
Relative Rate (2.7 mM) [1]: 90

COC(=O)CCCCCCCCO[C@@H]1O[C@H](CO)[C@@H](O[C@@H]2O[C@@H](C)[C@@H](O)[C@@H](O)[C@@H]2O)[C@H](O[C@@H]2O[C@H](CO)[C@H](O)[C@H](O)[C@H]2O)[C@H]1NC(C)=O [Le^a-gr, 8-methoxycarbonyloctyl β-D-galactopyranosyl-(1→3) [α-L-fucopyranosyl-(1→4)]-β-D-2-acetamide-2-deoxy-glucopyranoside]
dpm (radioactive transfer to acceptor) ([2]; Incubation time 170 min., total CMP-NANA 176174): 4161/4045
Relative Vmax [1]: 42
Relative Rate (2.7 mM) [1]: 50

COC(=O)CCCCCCCCO[C@@H]1O[C@H](CO)[C@@H](O)[C@H](O[C@@H]2O[C@H](CO)[C@H](O)[C@H](O)[C@H]2O)[C@H]1NC(C)=O [Le^c-O-gr]
Relative Vmax [1]: 90
Relative Rate (2.7 mM) [1]: 79

COC(=O)CCCCCCCCO[C@@H]1O[C@H](CO)[C@@H](O[C@@H]2O[C@H](CO)[C@H](O)[C@H](O)[C@H]2O)[C@H](O[C@@H]2O[C@@H](C)[C@@H](O)[C@@H](O)[C@@H]2O)[C@H]1NC(C)=O [Le^x-gr, 8-methoxycarbonyloctyl α-L-fucopyranosyl-(1→3)-[β-D-galactopyranosyl-(1→4)]-β-D-2-acetamide-2-deoxy-glucopyranoside]
dpm (radioactive transfer to acceptor) ([2]; Incubation time 90 min., total CMP-NANA 152644): 1330/1130
Relative Vmax [1]: 30
Relative Rate (2.7 mM) [1]: 21

COC(=O)CCCCCCCCO[C@H]1O[C@H](CO)[C@H](O)[C@H](O[C@@H]2O[C@H](CO)[C@H](O)[C@H](O)[C@H]2O)[C@H]1NC(C)=O [T-disaccharide-O-gr]
Relative Vmax [1]: 51
Relative Rate (2.7 mM) [1]: 64
